Assays:
A549 cells = experiment: MTT cytotoxicity assay, A549 cells; type: cell-based, human; conditions: A549 cells, 1, 5 and 25 μM, 24 h
Protocol: (§1) HeLa and A549 cells were seeded at 2 × 10^3 cells/cm^2 density in 24-well plastic plates. One day after plating, compounds 6 and 18 were added to the culture medium for 24 h. Cell viability was evaluated with the 3-(4,5-dimethylthiazol-2-yl)-2,5-diphenyltetrazolium bromide (MTT; 0.5 mg/mL; Sigma-Aldrich, Milan, Italy) reduction assay, and formazan salt formation upon MTT reduction by the mitochondria of living cells was detected spectrophotometrically at 595 nm according to published procedures.
(§2) Figure 2 Cell viability measured in HeLa and A549 cells treated for 24 h with increasing concentration of compound 6 (panel A, C) and 18 (panel B, D). Bar graphs show cell viability measured using the 3-(4,5-dimethylthiazol-2-yl)-2,5-diphenyltetrazolium bromide (MTT) assay. Data are expressed as optical density (OD) at 595 nm, normalized to control (vehicle). The bar is the standard error of the mean (SEM) on 3 independent determinations. Statistically significant differences were accepted when the p-value was at least ≤0.05.

rTRPV4 = target: T1, rTRPV4 (Rattus norvegicus, UniProt Q9ERZ8); experiment: TRPV4 calcium influx assay (Fluo-4) in HEK-293 cells overexpressing rat recombinant TRPV4; type: cell-based; conditions: for IC50: against the effect of GSK1016790A (10 nM) after a 5-min pre-incubation, read-out: IC50 inh. TRPV4; for Efficacy %: as percent of the effect of ionomycin (4 µM), HEK-293 cells overexpressing rTRPV4, means ± SEM, n >= 3
T1 construct: expressed in transfected cells; host or cells: HEK-293
T1 sequence (Q9ERZ8 whole entry): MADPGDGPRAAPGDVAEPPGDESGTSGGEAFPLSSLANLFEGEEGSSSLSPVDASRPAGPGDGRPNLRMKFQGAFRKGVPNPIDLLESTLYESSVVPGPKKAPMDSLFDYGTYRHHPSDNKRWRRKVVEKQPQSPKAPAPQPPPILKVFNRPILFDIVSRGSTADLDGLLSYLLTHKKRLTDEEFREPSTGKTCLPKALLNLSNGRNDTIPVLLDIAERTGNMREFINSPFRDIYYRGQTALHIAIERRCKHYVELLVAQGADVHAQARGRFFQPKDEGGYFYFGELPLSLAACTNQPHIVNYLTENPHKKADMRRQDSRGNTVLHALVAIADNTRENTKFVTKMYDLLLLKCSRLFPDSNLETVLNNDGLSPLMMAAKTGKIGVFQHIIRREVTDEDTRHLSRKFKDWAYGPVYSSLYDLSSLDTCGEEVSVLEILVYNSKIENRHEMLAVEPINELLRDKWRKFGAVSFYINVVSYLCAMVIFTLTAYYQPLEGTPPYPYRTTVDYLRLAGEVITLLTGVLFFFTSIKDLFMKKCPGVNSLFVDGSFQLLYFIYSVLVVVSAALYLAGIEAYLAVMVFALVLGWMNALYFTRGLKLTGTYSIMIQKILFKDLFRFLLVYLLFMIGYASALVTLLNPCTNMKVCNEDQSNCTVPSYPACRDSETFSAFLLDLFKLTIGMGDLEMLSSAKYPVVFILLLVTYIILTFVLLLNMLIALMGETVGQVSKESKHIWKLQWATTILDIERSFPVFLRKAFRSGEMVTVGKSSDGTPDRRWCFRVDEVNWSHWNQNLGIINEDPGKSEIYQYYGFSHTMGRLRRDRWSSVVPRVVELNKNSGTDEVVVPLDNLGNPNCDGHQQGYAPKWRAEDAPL
Source text: The interaction properties of all homodrimane-derived compounds 1–16, 18–19, and 22–25 with either TRPV type-4 or type-1 were studied in human embryonic kidney (HEK)-293 cells overexpressing either the rat recombinant type-4 (rTRPV4), which shares with the human orthologue ~95% of sequence identity, and the human recombinant type-1 (hTRPV1) channel, evaluating the changes in intracellular calcium levels. […] Cell fluorescence before and after the addition of various concentrations of test compounds was measured normalizing the effects against the response to ionomycin (4 μM). […] Dose-response curve fitting (sigmoidal dose-response variable slope) and parameter estimation were performed with Graph-Pad Prism8® (GraphPad Software Inc., San Diego, CA, USA). All determinations were performed at least in triplicate.

HeLa cells = experiment: MTT cytotoxicity assay, HeLa cells; type: cell-based, human; conditions: HeLa cells, 1, 5 and 25 μM, 24 h
Protocol: as §1, §2

hTRPV1 = target: T2, hTRPV1 (Homo sapiens, UniProt Q8NER1); experiment: TRPV1 calcium influx assay (Fluo-4) in HEK-293 cells overexpressing human recombinant TRPV1; type: cell-based; conditions: for IC50: read-out: IC50 inh TRPV1
T2 construct: expressed in transfected cells; host or cells: HEK-293
T2 sequence (Q8NER1 whole entry): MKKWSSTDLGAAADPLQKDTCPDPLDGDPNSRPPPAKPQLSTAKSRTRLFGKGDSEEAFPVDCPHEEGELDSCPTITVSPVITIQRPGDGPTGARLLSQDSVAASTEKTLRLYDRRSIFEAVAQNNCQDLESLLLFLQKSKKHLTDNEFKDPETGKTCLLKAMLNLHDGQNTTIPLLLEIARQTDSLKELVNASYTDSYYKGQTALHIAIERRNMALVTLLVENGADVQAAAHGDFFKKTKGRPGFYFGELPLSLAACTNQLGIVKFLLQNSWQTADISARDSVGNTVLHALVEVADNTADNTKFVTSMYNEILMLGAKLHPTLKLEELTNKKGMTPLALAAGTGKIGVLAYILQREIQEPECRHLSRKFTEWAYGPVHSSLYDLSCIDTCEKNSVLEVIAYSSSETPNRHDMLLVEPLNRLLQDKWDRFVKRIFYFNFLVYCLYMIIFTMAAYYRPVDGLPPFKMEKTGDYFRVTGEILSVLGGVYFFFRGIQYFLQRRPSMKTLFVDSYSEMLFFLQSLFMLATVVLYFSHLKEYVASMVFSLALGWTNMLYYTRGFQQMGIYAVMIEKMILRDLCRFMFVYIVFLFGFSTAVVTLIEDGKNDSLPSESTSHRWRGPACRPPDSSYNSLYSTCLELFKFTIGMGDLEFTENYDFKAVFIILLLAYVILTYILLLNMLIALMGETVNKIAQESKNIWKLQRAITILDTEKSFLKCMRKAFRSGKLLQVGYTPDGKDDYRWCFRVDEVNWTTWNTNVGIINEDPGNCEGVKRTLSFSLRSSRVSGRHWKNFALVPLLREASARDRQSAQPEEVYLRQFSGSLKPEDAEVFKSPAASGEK

TRPV4 = conditions: cited from earlier work
TRPV1 = system: TRPV1; design: method as in PMID 30507122; conditions: cited from earlier work

Compound	cytotoxic effect (cell viability, MTT) (A549 cells)	activity on rTRPV4 in words (rTRPV4)	IC50 (rTRPV4)	Efficacy % (rTRPV4)	cytotoxic effect (cell viability, MTT) (HeLa cells)	IC50 (hTRPV1)	also measured
CC1(C)CCC[C@]2(C)[C@@H](CC(=O)NCc3ccc(Cl)c(Cl)c3)[C@](C)(O)CC[C@@H]12 [Compound 6, N-(3,4-dichlorobenzyl)-2-((1R,2R,4aS,8aS)-2-hydroxy-2,5,5,8a-tetramethyldecahydronaphthalen-1-yl)acetamide]	neither compound caused statistically-significant cytotoxic effects at any tested concentration	potent and selective TRPV4 antagonists	5.3 ± 0.3 µM	<10%	neither compound caused statistically-significant cytotoxic effects at any tested concentration	> 100 µM	Efficacy % (hTRPV1; as percent of the effect of ionomycin (4 µM), HEK-293 cells overexpressing hTRPV1, means ± SEM, N >= 3): 16.9 ± 0.3%
CC1(C)CCC[C@]2(C)[C@@H](CC(=O)OCc3ccccc3)[C@](C)(O)CC[C@@H]12 [Compound 18, Benzyl 2-((1R,2R,4aS,8aS)-2-hydroxy-2,5,5,8a-tetramethyldecahydronaphthalen-1-yl)acetate]	neither compound caused statistically-significant cytotoxic effects at any tested concentration	potent and selective TRPV4 antagonists	5.41 ± 0.07 µM	<10%	neither compound caused statistically-significant cytotoxic effects at any tested concentration	–	–
CC1(C)CCC[C@]2(C)[C@@H](CCOC(=O)/C=C/c3ccc4c(c3)OCO4)[C@](C)(O)CC[C@@H]12 [Compound 23, 2-((1R,2R,4aS,8aS)-2-hydroxy-2,5,5,8a-tetramethyldecahydronaphthalen-1-yl)ethyl (E)-3-(benzo[d][1,3]dioxol-5-yl)acrylate]	–	–	> 100 µM	<10%	–	> 100 µM	melting point: 115 to 116 °C
C=C1CC[C@@H]2[C@](C)(CO)[C@H](O)CC[C@@]2(C)[C@@H]1/C=C/C1=CC(C(C[C@@H]2C(=C)CC[C@@H]3[C@](C)(CO)[C@H](O)CC[C@]32C)C2=CCOC2=O)OC1=O (stereo partly shown) [bisandrographolide A]	–	–	–	–	–	–	EC50 (TRPV4; read-out: EC50 (TRPV4 agonist)): 0.79 to 0.95 µM
C/C=C(\C)[C@H]1C(C)=C[C@H]2C[C@@H](C)C[C@@H](C(=O)O)[C@@H]2[C@@]1(C)C(=O)c1cccnc1 [onydecalin A]	–	–	–	–	–	–	activity towards TRPV1 in words (TRPV1): partial activity; IC50 (TRPV4; read-out: IC50 (TRPV4 antagonist)): 45.9 µM

— publication PMC7594054, “Design, Synthesis and In Vitro Experimental Validation of Novel TRPV4 Antagonists Inspired by Labdane Diterpenes” (Marine Drugs, 2020)
